Legend:
Assay type in all cases: cell-based, human
WNT10B = assay: Micro-RNA mimic assay: transfection of THP1 cells, WNT10B mRNA (qRT-PCR) and protein (western blot); conditions: 5 pmol per well mimic
Protocol: THP1 cells obtained from ATCC were cultured in complete RPMI medium containing 10% FBS, penicillin, and streptomycin, HEPES buffer and 2-mercaptoethanol. The incubation condition was at 37° C. and 5% CO2.
To investigate whether hsa-miR-7113-5p regulated expression of WNT10B, miRNA mimic transfection studies were performed in THP1 cells. Mimics and inhibitors of the miRNA were obtained from Qiagen Inc. and transfected into the cells by employing Lipofectamine RNAiMAX (Invitrogen, ThermoFisher Scientific, USA). One day prior to transfection, 2×10^5 THP1 cells were plated in a 24-well plate in 5001l complete RPMI medium. Mimic, inhibitor, and scrambled oligos were then added at an amount of 5 pmol per well. Cells were cultured for the indicated time after transfection and harvested for RNA and protein isolation. RNA samples were used for qRT-PCR based quantification of mRNAs and miRNAs. Whole-cell lysates were used for western blot analysis of miRNA target protein.
For the Western blot, anti-human-WNT10B was purchased from SIGMA-ALDRICH (cat # PRS4619). […] The total protein was not pre-quantified for loading onto the SDS-PAGE as the protein amount was to be normalized using an internal control. […] Protein bands were detected in a LI-COR blot detection system (Li-Cor Inc, Nebraska, USA).

WNT signaling pathway = assay: Blocking WNT signaling with IWR-1 in PMA-activated PBMCs, IFNγ expression; conditions: 10 μM IWR-1, 200 nM PMA
Protocol: To investigate whether WNT10B was directly responsible for the upregulation of IFNγ expression, the WNT signaling pathway was blocked using an inhibitor of WNT response-1 (IWR-1, Sigma-Aldrich, St. Louis, Mo., cat # I0161). IWR-1 inhibits WNT signaling by stabilizing AXIN1 and prevents its degradation. AXIN1 is an inhibitor of WNT signaling pathway30. PBMCs (2×106) from healthy controls were cultured overnight (˜18 hours) with 10 LM of IWR-1 in separate wells of a 96-well culture plate in 200 μl complete RPMI medium. The following day, PMA and IWR-1 (in a 10 μl volume) were added to the culture to reach a final concentration of 200 nM PMA and 10 μM IWR-1, respectively. After 6 hours, WNT10B was added to the designated wells. Cells were harvested after 24 and 48 hours of adding WNT10B for total RNA extraction. Culture supernatant was collected for ELISA. ELISA for human IFNγ was performed on culture supernatants. The kit for ELISA was purchased from BioLegend Inc. (CA, USA) and assay was performed following the manufacturer's instructions. Reading for OD was performed in a Victor2TM, 1420 Multilabel Counter (Perkin Elmer, USA) plate reader.

PBMCs = assay: WNT10B signaling pathway initiation: rh-WNT10B added to PBMC cultures, proinflammatory gene expression and IFNγ ELISA; conditions: for expression of IFNγ at mRNA level / expression of Tbx-21 at mRNA level: vs un-activated PBMCs or PMA activated PBMCs without rh-WNT10B
Protocol: To analyze whether WNT 10B could influence the expression of proinflammatory genes, WNT signaling was initiated by adding recombinant human (rh)-WNT10B in PBMCs cultures. The PBMCs were isolated from healthy human individuals. Two million cells were cultured in 200 μl medium in a 96-well tissue culture plates as follows: First, the PBMCs were stimulated with Phorbol 12-myristate 13-acetate (PMA) (200 nM) for 6 hours following which, 200 ng/ml rh-WNT10B was added. Then, the PBMCs were harvested after 24 and 48 hours and used for RNA and whole cell lysate (WCL) extraction for further analysis. The culture supernatants were also collected for ELISA to detect IFNγ. The following combinations were used as controls: 1) PBMCs+PMA without WNT10B and 2) PBMCs+WNT10B without PMA.
Before activation of cells and to see whether pre-exposure of cells to WNT10B can influence inflammatory gene expression, WNT10B (200 ng/ml) was first added in all the culture with PBMCs. After 24 hours, PMA (200 nM) was added to activate the cells. The following condition was used for the control: PBMCs+WNT10B without PMA. The cells were then harvested 24 hours after addition of PMA.
To test if chronic presence of WNT 10B alone (without stimulation with PMA) can lead to increased expression of inflammatory genes in the PBMCs, PBMCs (2×10^6 cells/well, in 200 μl, in a 96-well plate) were cultured with rh-WNT10B (200 ng/ml) for 96 hours. Additional rh-WNT10B was added after every 24 hours of culture. Cells were harvested every 24 hours for RNA and whole-cell lysate isolation. Supernatants were also collected for performing ELISA.
ELISA for human IFNγ was performed on culture supernatants. The kit for ELISA was purchased from BioLegend Inc. (CA, USA) and assay was performed following the manufacturer's instructions. Reading for OD was performed in a Victor2TM, 1420 Multilabel Counter (Perkin Elmer, USA) plate reader.

[1] = PMA (200 nM) activated PBMCs, 200 ng/ml rh-WNT10B, 24 hours
[2] = PMA (200 nM) activated PBMCs, 200 ng/ml rh-WNT10B, 48 hours

Compound: mimics of hsa-miR-7113-5p: Mimic of miRNA hsa-miR-7113-5p (UCCAGGGAGACAGUGUGUGAG, SEQ ID NO: 2) obtained from Qiagen Inc. (listed as RNA, chemistry not given here; listed as Homo sapiens)
- level of WNT10B mRNA (WNT10B; qRT-PCR, compared to scrambled miRNA and miRNA-7113-5p-inhibitor treated groups): Significant reduction
- level of WNT10B protein (WNT10B; western blot of whole-cell lysate after 72 hours, compared to scrambled miRNA and inhibitor groups): Significant reduction

Compound: O=C(Nc1cccc2cccnc12)c1ccc(N2C(=O)C3C(C2=O)[C@H]2C=C[C@@H]3C2)cc1 (stereo partly shown) [IWR-1, 4-(1,3,3a,4,7,7a-Hexahydro-1,3-dioxo-4,7-methano-2H-isoindol-2-yl)-N-8-quinolinyl-benzamide]
- expression of IFNγ and other proinflammatory genes upon addition of WNT10B (WNT signaling pathway; WNT10B added after 6 hours): did not lead to increased expression
- expression of IFNγ (WNT signaling pathway; compared to cells activated with PMA only): significantly downregulated

Compound: rh-WNT10B: recombinant human (rh)-WNT10B added to PBMC cultures to initiate WNT signaling
- protein level of IFNγ (PBMCs; PMA (200 nM) activated PBMCs, 200 ng/ml rh-WNT10B, 24 hours, ELISA on culture supernatant): significant increase
- expression of IFNγ at mRNA level (PBMCs; [1]): significant increase
- expression of Tbx-21 at mRNA level (PBMCs; [1]): significant increase
- expression of IFNγ at mRNA level (PBMCs; [2]): significant increase
- expression of Tbx-21 at mRNA level (PBMCs; [2]): significant increase
- induction of inflammatory genes, including STAT3, STAT4, or IFNγ (PBMCs; rh-WNT10B (200 and 500 ng/ml) alone added to naïve PBMCs, without PMA): did not induce any inflammatory genes
